We go through three molecules from patent US9848602B2, “Use of prothioconazole to induce host defence responses” (priority 2013, dated 2017).

Experiment [1] concerns PR1 (pathogenesis-related protein 1) gene (AT2G14610) promoter. Kind of experiment: Induction of defense gene expression, GFP reporter behind the PR1 promoter. The class given is in vivo, Arabidopsis thaliana. Conditions: 300 ppm, 3 days after spraying, mock (background) set as 1.00. The procedure:
Arabidopsis thaliana reporter plants containing the coding sequence of a green fluorescent protein (GFP) linked to the salicylate responsive promoter sequence of the PR1 (pathogenesis-related protein 1) gene (AT2G14610) were grown for five days and then sprayed with compounds. On the 3rd day after spraying, plant fluorescence was assessed with a MacroFluo instrument from Leica Microsystems (Wetzlar, Germany). Fluorescences were quantified with the MetaMorph Microscopy Automation & Image Analysis Software (Molecular Devices, Sunnyvale, Calif., United States).

The subject of experiment [2] is Arabidopsis thaliana plants (gene expression). Kind of experiment: Induction of salicylic acid and pathogen response pathways, Affymetrix ATH1 gene expression analysis. The conditions noted are these: 500 g/ha spray; for total number of differentially expressed genes: p≦0.05, vs control. It counts as in vivo. The procedure:
Arabidopsis thaliana plants were grown on soil in climate controlled growth chambers for 33 days under defined conditions. For treatment Prothioconazole was formulated to result in a final concentration corresponding to 500 g/ha in a spray application. The plants were sprayed in biological replicates. A control group of similar grown plants was equally treated with a blank formulation. Aerial tissues of the treated plants were harvested 3 h and 6 h after treatment, frozen in liquid nitrogen and stored at −80° C. for further processing. Each biological replicate (3 per treatment and time point) consisted of a pool of 10 plants.
Total RNA was prepared from each sample using the RNeasy Midi kit from Qiagen #75142 according to the manufacturer's recommendations. The RNA was then transcribed into cDNA using Superscript II Reverse Transcriptase (Invitrogen). The biotin-labeled cRNA probes for hybridization were generated from the cDNA using the BioArray HighYield® RNA transcript labeling kit (T7) (Enzo Life Sceinces # ENZ42655-40) according the manufacturer's recommendations. The labelled cRNA probes were subsequently hybridized onto Affymetrix GeneChip Arabidopsis ATH1 Genome Arrays (cat.#900385).
The samples were analyzed using the Affymetrix GeneChip System. The resulting data were processed and analyzed using Genedata Refiner Array, Genedata Analyst, RobiNA (Lohse et al. 2012, Nucleic Acids Res) and MapMan (Usadel et al. 2009, Plant Cell Environment) software packages.

The mark [3] stands for this setting: 3 h after treatment, >2-fold change, p≦0.05.
Where [4] appears, read: 6 h after treatment, >2-fold change, p≦0.05.

In the case of `OC(Cc1ccccc1Cl)(Cn1[nH]cnc1=S)C1(Cl)CC1` (centres unmarked) [Prothioconazole, 2-[2-(1-chlorocyclopropyl)-3-(2-chlorophenyl)-2-hydroxypropyl]-1,2-dihydro-3H-1,2,4-triazole-3-thione], the “Relative fluorescence of GFP” value in experiment [1] was found to be 2.04. Further, in experiment [2] (setting [3]), the “number of down-regulated genes” value turned out to be 142 and the “number of up-regulated genes” value is 238. In addition, in experiment [2] (3 h after treatment, >2-fold change), the “total number of differentially expressed genes” value amounted to 380. Also, in experiment [2] (6 h after treatment), the “induction of At1g57630 [Toll-Interleukin-Resistance domain-containing protein]” value was 3.4 fold, the “induction of At1g66090 [TIR-NBS class of disease resistance protein]” value came out at 2.4 fold, the “induction of At3g59930 [Defensin-like protein 206]” value turned out to be 3 fold and the “induction of At4g36010 [pathogenesis-related thaumatin family protein]” value was determined as 3.8 fold. In experiment [2] (setting [4]), the “number of downregulated genes” value is listed as 148 and the “number of up-regulated genes” value turned out to be 299. In addition, the “total number of differentially expressed genes” value in experiment [2] (6 h after treatment, >2-fold change) came out at 447. For the same molecule, in experiment [2] (after 3 h), the “induction of At1g05680 (UDP-glucose: salicylic acid glucosyltransferase)” value is listed as 3 fold and the “induction of At2g43820 (UDP-glucose: salicylic acid glucosyltransferase)” value worked out at 2.5 fold. Also, in experiment [2] (after 6 h), the “induction of At1g05680 (UDP-glucose: salicylic acid glucosyltransferase)” value is 5.5 fold and the “induction of At2g43820 (UDP-glucose: salicylic acid glucosyltransferase)” value worked out at 2.5 fold.
For the molecule `CC(C)(C)C(O)(CCc1ccc(Cl)cc1)Cn1cncn1` (centres unmarked) [Tebuconazole], the “Relative fluorescence of GFP” value in experiment [1] amounted to 0.73.
Same read-out and setting: the value for `O=C(O)c1ccccc1O` [Salicylic acid, salicylic acid] was 1.96.
